Source: US20260137634A1, “USE OF STILBENE DERIVATIVE IN PREVENTION AND/OR TREATMENT OF ULCERS” (THEDERMA SHANGHAI CO., LTD., priority 2022, published 2026)

Experiments:
[1] = system: DB/DB male mouse diabetic foot ulcer model; assay: Efficacy in DB/DB male mouse diabetic foot ulcer model after 10 days of treatment; type: in vivo; details: DB/DB male mice; for Ulcer healing rate / Ulcer area Day 10: 1 mg/mouse; for Ulcer healing rate: 2 times daily for 10 days, ** p<0.05 vs vehicle; for Ulcer healing rate / Ulcer area Day 10 / Ulcer area Day 0: n = 6; for Ulcer area Day 10: 50 μL applied to ulcer 2 times daily for 10 days; for Ulcer area Day 0: foot ulcer, Day 0 (baseline)
Protocol: Eighteen DB/DB male mice were randomly divided into 3 groups, i.e., a model group (propylene glycol vehicle group), a 2% indigo group (1 mg/mouse), and a 2% tapinarof group (1 mg/mouse).
Foot ulcer modeling: after the mouse was anesthetized, the foot was disinfected; a 4 mm×5 mm rectangular region was marked on the dorsum of the foot; and the skin and fascia were removed within the region.
Administration: on the dorsum of the foot of the mouse, 50 μL of the solution in each group was pipetted by using a pipettor and evenly applied to the ulcer part 2 times daily for 10 consecutive days, and the length and the width of the ulcer were recorded.
Statistical analysis was performed by using one-way ANOVA. As compared to the vehicle group, ** indicates p<0.05.

[2] = system: SD male rat oral ulcer model; assay: Efficacy in SD male rat oral ulcer model after 7 days of treatment; type: in vivo; details: SD male rats; for Ulcer healing rate / Ulcer area Day 7: 1 mg/rat; for Ulcer healing rate: 2 times daily for 7 days; for Ulcer healing rate / Ulcer area Day 7 / Ulcer area Day 0: n = 6; for Ulcer area Day 7: 50 μL applied to ulcer 2 times daily for 7 days; for Ulcer area Day 0: glacial acetic acid oral ulcer, Day 0 (baseline)
Protocol: Eighteen SD male rats were randomly divided into 3 groups, i.e., a model group (propylene glycol vehicle group), a 2% indigo group (1 mg/rat), and a 2% tapinarof group (1 mg/rat). Oral ulcer modeling: a 1 cm×0.6 cm filter paper (soaked into a 60% glacial acetic acid solution) was placed on the labial mucosa of the alveolar bone beneath the lower incisor in a rat and maintained for 1 min. Administration: after the rats were anesthetized, 50 μL of the solution in each group was pipetted by using a pipettor and evenly applied to the ulcer part 2 times daily for 7 consecutive days. After each group was treated with glacial acetic acid, symptoms such as pseudomembrane covering, central depression, red and swollen edges, significant pain response after stimulation, etc. appeared, and after the administration was completed, various symptoms were relieved.

Compound	Ulcer healing rate [1]	Ulcer area Day 10 [1]	Ulcer area Day 0 [1]	Ulcer healing rate [2]	Ulcer area Day 7 [2]	Ulcer area Day 0 [2]	effect in mouse diabetic foot ulcer model (in words) ([1]; after 10 days of administration)	therapeutic effect in rat oral ulcer model (in words) ([2]; 7 days of treatment)
O=C1/C(=C2\Nc3ccccc3C2=O)Nc2ccccc21 [2% indigo, indigo, reference compound]	26%	13.30 mm^2	17.99 mm^2	52%	22.09 mm^2	46.33 mm^2		
CC(C)c1c(O)cc(/C=C/c2ccccc2)cc1O [2% tapinarof, tapinarof]	39%**	10.93 mm^2	18.19 mm^2	58%	19.70 mm^2	46.90 mm^2	significant inhibitory effect, which was superior to that of the 2% indigo group	good therapeutic effect, and its efficacy was superior to that of 2% indigo
